Laboratory results as given in the NIST ThermoML archive (doi:10.1021/je100687x).

Assay: xn = mol fraction of the nth substance listed
Conditions: 101 kPa, Liquid; for electrical conductivity: Crison GLP 31+ conductivimeter

CCCCCCCC[n+]1ccn(C)c1.F[B-](F)(F)F [1-methyl-3-octylimidazolium tetrafluoroborate] + CCO
Conditions | electrical conductivity [S/m] | viscosity [mPa·s]
288.15 K, x2 = 0 | – | 686
288.15 K, x2 = 0.0891 | – | 428.3
288.15 K, x2 = 0.1902 | – | 244.7
288.15 K, x2 = 0.2927 | – | 141
288.15 K, x2 = 0.3914 | – | 73.44
288.15 K, x2 = 0.4911 | – | 45.24
288.15 K, x2 = 0.5938 | – | 26.02
288.15 K, x2 = 0.6979 | – | 14.53
288.15 K, x2 = 0.798 | – | 7.219
288.15 K, x2 = 0.9002 | – | 3.499
298.15 K, x2 = 0 | 0.069 | 337.4
298.15 K, x2 = 0.0891 | – | 224.8
298.15 K, x2 = 0.1236 | 0.108 | –
298.15 K, x2 = 0.183 | 0.143 | –
298.15 K, x2 = 0.1902 | – | 140.9
298.15 K, x2 = 0.2395 | 0.191 | –
298.15 K, x2 = 0.2898 | 0.239 | –
298.15 K, x2 = 0.2927 | – | 83.3
298.15 K, x2 = 0.3359 | 0.291 | –
298.15 K, x2 = 0.3914 | – | 46.35
298.15 K, x2 = 0.4147 | 0.396 | –
298.15 K, x2 = 0.4783 | 0.5 | –
298.15 K, x2 = 0.4911 | – | 29.85
298.15 K, x2 = 0.5316 | 0.59 | –
298.15 K, x2 = 0.5759 | 0.672 | –
298.15 K, x2 = 0.5938 | – | 17.84
298.15 K, x2 = 0.6135 | 0.737 | –
298.15 K, x2 = 0.6455 | 0.786 | –
298.15 K, x2 = 0.6799 | 0.834 | –
298.15 K, x2 = 0.6979 | – | 10.39
298.15 K, x2 = 0.7089 | 0.872 | –
298.15 K, x2 = 0.7381 | 0.911 | –
298.15 K, x2 = 0.7667 | 0.918 | –
298.15 K, x2 = 0.7922 | 0.926 | –
298.15 K, x2 = 0.798 | – | 5.362
298.15 K, x2 = 0.8138 | 0.92 | –
298.15 K, x2 = 0.832 | 0.903 | –
298.15 K, x2 = 0.8472 | 0.882 | –
298.15 K, x2 = 0.8663 | 0.844 | –
298.15 K, x2 = 0.8814 | 0.8 | –
298.15 K, x2 = 0.8938 | 0.762 | –
298.15 K, x2 = 0.9002 | – | 2.764
298.15 K, x2 = 0.9087 | 0.696 | –
298.15 K, x2 = 0.9197 | 0.639 | –
298.15 K, x2 = 0.9307 | 0.583 | –
298.15 K, x2 = 0.9409 | 0.526 | –
298.15 K, x2 = 0.9502 | 0.454 | –
298.15 K, x2 = 0.9586 | 0.393 | –
298.15 K, x2 = 0.9692 | 0.304 | –
298.15 K, x2 = 0.9771 | 0.239 | –
298.15 K, x2 = 0.9851 | 0.155 | –
298.15 K, x2 = 0.9915 | 0.0924 | –
308.15 K, x2 = 0 | – | 187.7
308.15 K, x2 = 0.0891 | – | 132.1
308.15 K, x2 = 0.1902 | – | 85.86
308.15 K, x2 = 0.2927 | – | 53.62
308.15 K, x2 = 0.3914 | – | 31.24
308.15 K, x2 = 0.4911 | – | 20.79
308.15 K, x2 = 0.5938 | – | 12.87
308.15 K, x2 = 0.6979 | – | 7.756
308.15 K, x2 = 0.798 | – | 4.135
308.15 K, x2 = 0.9002 | – | 2.206
318.15 K, x2 = 0 | – | 112.1
318.15 K, x2 = 0.0891 | – | 81.45
318.15 K, x2 = 0.1902 | – | 56.18
318.15 K, x2 = 0.2927 | – | 36.49
318.15 K, x2 = 0.3914 | – | 22.1
318.15 K, x2 = 0.4911 | – | 15.44
318.15 K, x2 = 0.5938 | – | 9.671
318.15 K, x2 = 0.6979 | – | 6.015
318.15 K, x2 = 0.798 | – | 3.283
318.15 K, x2 = 0.9002 | – | 1.802
